For series [1], the system named is disturbances of the cardiac rhythm. Kind of series: Anti-arrhythmic action in the rat (aconitine perfusion). Type of series: in vivo, male rats. As for the experimental part: Male rats weighing 300-350 g were anesthetized intra-peritoneally with 1.20 g/kg of urethane, then tracheotomized and submitted to artificial respiration (40-50 breaths of 3 ml/minute). Needles were implanted subcutaneously so as to record the electro-cardiogram of the rats on the DII derivation signal. The products under test were administered intravenously or orally.
Five minutes after the administration of the product intravenously or 1 hour after administration orally, the jugular vein of the rats was perfused with 10 μg/minute from 0.2 ml of a solution of aconitine, and the time of appearance of disturbances of the cardiac rhythm was noted, (10 μg of aconitine corresponding to a perfusion of 0.2 ml of solution). The results are expressed as a percentage of the extension of the time of appearance of the disturbances of the cardiac rhythm as compared with controls, and as a function of the dose of the product under test.

A further series deals with mice. Briefly: Study of the acute toxicity. Type of series: in vivo. Particulars: oral. The procedure:
The lethal doses LD50 of the different compounds tested were evaluated after administration orally to mice. The maximum dose not causing any mortality in 8 days was called the LD0 and the following results were obtained.

A further series concerns Rat caudal arteries. Kind of series: Test of calcium-antagonistic activity in vitro (K+ depolarized caudal arteries). Type of series: cell-based. As to conditions: 100 mM K+, 37° C., read-out: IC50, inhibition of the contraction due to K+ ions. The procedure: Calcium chloride was added in a volume of 250 μl to obtain a series of increasing concentrations of Ca^2+ ions ranging from 0.1 to 3.0 mM. The contractions of the arteries were recorded and a control series were thus established. The operation was repeated with the series of CA^2+ ions every 15 minutes and the preparation was washed four times after each series. When a stable response was obtained, the operation with the series of CA^2+ ions was performed in the presence of different concentrations of the test product, until a stable response was obtained.
The contractions of the arteries depend on the entry of Ca^2+ ions into the cells of the smooth muscles, and were caused by the depolarization of the smooth muscle by the K^+ ions and by the action of the noradrenaline released at presynaptic level. By starting the operation again with arteries denervated by the action of 6-OH-dopamine, the specific action due to noradrenaline was eliminated.

Where [2] appears, read: iv, read-out: Percentage extension of the time of appearance of disturbances of the cardiac rhythm.
The mark [3] stands for this setting: po, read-out: Percentage extension of the time of appearance of disturbances of the cardiac rhythm.
The mark [4] stands for this setting: read-out: Percentage of prolongation in the time.
[5] abbreviates: iv, read-out: Percentage of prolongation in the time.

The values below come from patent publication US5084455A, “Novel indole carboxamides” (Roussel Uclaf, priority 1985, dated 1992).

Structures can show the parent of a compound that is named as a salt. Where two headings read alike, the source gives them in different places.

Regarding `CC(C)(C)NCC(O)COc1ccccc1NC(=O)c1cccc2[nH]ccc12` (stereo not drawn) [Example 1, N-[2-[3-[(1,1-dimethylethyl)amino]-2-hydroxypropoxy]-phenyl]-1H-indol-4-carboxyamide], in series [1] (setting [2]), the change in vivo at 0.25 mg/kg was 31%, the change in vivo at 0.5 mg/kg came to 41% and the change in vivo at 1 mg/kg was found to be 110%. The “LD0 (maximum dose not causing any mortality in 8 days)” value in the series with mice is 80 mg/kg.
In the case of `CC(C)(C)NCCOc1ccccc1NC(=O)c1cccc2[nH]ccc12` [Example 2, N-[2-[2-[(1,1-dimethylethyl)amino]ethoxy]phenyl]-1H-indol-4-carboxamide], in series [1] (setting [2]), the change in vivo at 1 mg/kg came out at 6% and the change in vivo at 2.5 mg/kg came out at 57%. In addition, in the series with mice, the “LD0 (maximum dose not causing any mortality in 8 days)” value turned out to be 80 mg/kg.
As to `CC(C)(C)NCCCOc1ccccc1NC(=O)c1cccc2[nH]ccc12` [Example 3, N-[2-[3-[(1,1-dimethylethyl)amino]propoxy]phenyl]-1H-indol-4-carboxamide hydrochloride], the change in vivo at 2.5 mg/kg in series [1] (setting [2]) was found to be 68%.
On to `CC(C)(C)NCC(O)COc1ccccc1C(=O)Nc1cccc2[nH]ccc12` (stereo not drawn) [Example 4, 2-[3-[(1,1-dimethylethyl)amino]-2-hydroxypropoxy]-N-(1H-indol-4-yl)benzamide], for which, in series [1] (setting [2]), the change in vivo at 0.5 mg/kg is 17%, the change in vivo at 1 mg/kg is 38% and the change in vivo at 2.5 mg/kg came to 124%. Moreover, in series [1] (setting [3]), the change in vivo at 5 mg/kg is 7%, the change in vivo at 10 mg/kg worked out at 46% and the change in vivo at 25 mg/kg amounted to 81%. In addition, in the series with mice, the “LD0 (maximum dose not causing any mortality in 8 days)” value was above 400 mg/kg.
As for `CC(C)(C)NCCOc1ccccc1C(=O)Nc1cccc2[nH]ccc12.Cl` [Example 5, 2-[2-[(1,1-dimethylethyl)amino]ethoxy]-N-(1H-indol-4-yl)-benzamide hydrochloride], in series [1] (setting [2]), the change in vivo at 0.25 mg/kg is 9%, the change in vivo at 0.5 mg/kg stood at 36%, the change in vivo at 1 mg/kg worked out at 33% and the change in vivo at 2.5 mg/kg is 61%. Also, in series [1] (setting [3]), the change in vivo at 2.5 mg/kg is 22%, the change in vivo at 5 mg/kg stood at 32% and the change in vivo at 10 mg/kg turned out to be 59%. Besides, the “LD0 (maximum dose not causing any mortality in 8 days)” value with mice is 60 mg/kg.
`CC(C)(C)NCCCOc1ccccc1C(=O)Nc1cccc2[nH]ccc12` [Example 6, 2-[3-[(1,1-dimethylethyl)amino]propoxy]-N-(1H-indol-4-yl)benzamide]: the change in vivo at 1 mg/kg in series [1] (setting [2]) stood at 23%. For the same compound, the values for the change in vivo at 2.5 mg/kg in series [1] (setting [2]) and in series [1] (setting [3]) were 41% and 29%, respectively. In the series with mice, the “LD0 (maximum dose not causing any mortality in 8 days)” value was found to be 200 mg/kg.
Consider `CC(C)N(CCOc1ccccc1C(=O)Nc1cccc2[nH]ccc12)C(C)C` [Example 12, 2-[2-[bis(1-methylethyl)-amino]ethoxy-]N-(1H-indol-4-yl) benzamide], for which the “LD0 (maximum dose not causing any mortality in 8 days)” value in the series on mice is on record as above 400 mg/kg.
Consider `CC(C)N(CC(O)COc1ccccc1C(=O)Nc1cccc2[nH]ccc12)C(C)C` (stereo not drawn) [Example 15], for which, in series [1] (setting [2]), the change in vivo at 2.5 mg/kg was 25.5% and the change in vivo at 5 mg/kg was 56%. The “LD0 (maximum dose not causing any mortality in 8 days)” value in the series with mice is at least 400 mg/kg.
`CCC(C)(C)NCCCOc1ccccc1C(=O)Nc1cccc2[nH]ccc12` [Example 30, 2-[3-[(1,1-dimethylpropyl)amino]-propoxy]-N-(1H-indol-4-yl)benzamide]: in series [1] (setting [2]), the change in vivo at 2.5 mg/kg worked out at 38%, the change in vivo at 5 mg/kg came to 99% and the change in vivo at 10 mg/kg worked out at 147%. Further, the IC50 (commonly the concentration that gives 50% inhibition) in the series on Rat caudal arteries is 8 µM. Further, the “LD0 (maximum dose not causing any mortality in 8 days)” value with mice came out at 80 mg/kg.
For `O=C(Nc1cccc2[nH]ccc12)c1ccccc1OCCCNC1CCCCC1` [Example 31, 2-[3-(Cyclohexylamino)propoxy]-N-(1-H-indol-4-yl)benzamide], in series [1] (setting [2]), the change in vivo at 1 mg/kg worked out at 24%, the change in vivo at 2.5 mg/kg was 34% and the change in vivo at 5 mg/kg is 83%. Further, in the series on Rat caudal arteries, the half-maximal inhibitory concentration (IC50) stood at 1.8 µM.
On to `C#CC(C)(C)NCC(O)COc1ccccc1C(=O)Nc1cccc2[nH]ccc12` (stereo not drawn) [Example 35, 2-[3-[1,1-Dimethyl-2-propynylamino]-2-hydroxypropoxy]-N-(1H-indol-4-yl) benzamide], for which the IC50 with Rat caudal arteries was determined as 9 µM.
`CC(C)(C)CC(C)(C)NCC(O)COc1ccccc1C(=O)Nc1cccc2[nH]ccc12` (stereo not drawn) [Example 36, 2-[2-Hydroxy-3-[1,1,3,3-tetramethylbutyl-amino]propoxy]-N-(1H-indol-4-yl)benzamide]: in series [1] (setting [4]), the change in vivo at 1 mg/kg was 25% and the change in vivo at 2.5 mg/kg worked out at 69%. The IC50 with Rat caudal arteries was determined as 0.44 µM.
For the compound `CC(C)(CO)NCC(O)COc1ccccc1C(=O)Nc1cccc2[nH]ccc12` (stereo not drawn) [Example 37, 2-[3-[1,1-Dimethyl-2-hydroxyethylamino]-2-hydroxypropoxy]-N-(1H-indol-4-yl)benzamide], in series [1] (setting [4]), the change in vivo at 1 mg/kg was determined as 47% and the change in vivo at 5 mg/kg was found to be 116%.
Take `CCCNCCCOc1ccccc1C(=O)Nc1cccc2[nH]ccc12` [Example 38, N-(1H-Indol-4-yl)-2-[3-(propylamino)propoxy]-benzamide]: in series [1] (setting [4]), the change in vivo at 2.5 mg/kg was determined as 42%, the change in vivo at 5 mg/kg worked out at 76% and the change in vivo at 10 mg/kg turned out to be 173%.
On to `CC(C)(CO)NCCCOc1ccccc1C(=O)Nc1cccc2[nH]ccc12` [Example 40, 2-[3-[1,1-dimethyl-2-hydroxyethylamino]-propoxy]-N-(1H-indol-4-yl)benzamide], for which, in series [1] (setting [4]), the change in vivo at 1 mg/kg amounted to 21% and the change in vivo at 2.5 mg/kg was 50%. Moreover, the IC50 in the series with Rat caudal arteries was determined as 8.4 µM.
For the compound `CC(C)NCCCOc1ccccc1NC(=O)c1cccc2[nH]ccc12` [Example 41, N-[2-[3-[Isopropylamino]propoxy]phenyl]-1H-indole-4-carboxamide], in series [1] (setting [4]), the change in vivo at 1 mg/kg was 34%, the change in vivo at 2.5 mg/kg came to 57% and the change in vivo at 5 mg/kg is 156%.
In the case of `O=C(Nc1ccccc1OCCCNC1CCCC1)c1cccc2[nH]ccc12` [Example 42, N-[2-[3-(Cyclopentylamino)propoxy]phenyl]-1H-indol-4-carboxamide], in series [1] (setting [4]), the change in vivo at 1 mg/kg worked out at 29% and the change in vivo at 2.5 mg/kg turned out to be 86%.
Regarding `O=C(Nc1ccccc1OCCCNC1CCCCC1)c1cccc2[nH]ccc12` [Example 43, N-[2-[3-(Cyclohexylamino)propoxy]phenyl]-1H-indole-4-carboxamide], in series [1] (setting [4]), the change in vivo at 1 mg/kg amounted to 49% and the change in vivo at 2.5 mg/kg worked out at 83%.
With `CCC(C)(C)NCCCOc1ccccc1NC(=O)c1cccc2[nH]ccc12` [Example 44, N-[2-[3-[1,1-Dimethylpropylamino]propoxy]phenyl]-1H-indole-4-carboxamide], in series [1] (setting [4]), the change in vivo at 1 mg/kg stood at 50%, the change in vivo at 2.5 mg/kg was found to be 90% and the change in vivo at 5 mg/kg is 167%. The “LD0 (maximum dose not causing any mortality in 8 days)” value in the series with mice was found to be 200 mg/kg.
As for `COc1ccc(CCNCCCOc2ccccc2NC(=O)c2cccc3[nH]ccc23)cc1OC` [Example 45, N-[2-[3-[[2-(3,4-dimethoxyphenyl)ethyl]-amino]propoxy]phenyl]-1H-indole-4-carboxamide], in series [1] (setting [4]), the change in vivo at 2.5 mg/kg was determined as 60%, the change in vivo at 5 mg/kg was determined as 142% and the change in vivo at 10 mg/kg is 193%.
Turning to `COc1cc(CCN2CCN(CCCCOc3ccccc3C(=O)Nc3cccc4[nH]ccc34)CC2)cc(OC)c1OC` [Example 47, N-(1H-Indol-4-yl)-2-[4-[4-[2-(3,4,5-trimethoxyphenyl)ethyl]-1-piperazinyl]butoxy]benzamide], in series [1] (setting [4]), the change in vivo at 5 mg/kg was determined as 44% and the change in vivo at 10 mg/kg was found to be 67%. In addition, the IC50 in the series with Rat caudal arteries worked out at 2.8 µM.
`Cn1ccc2c(NC(=O)c3ccccc3OCC(O)CN3CCN(C(c4ccccc4)c4ccccc4)CC3)cccc21` (stereo not drawn) [Example 49]: in the series with Rat caudal arteries, the IC50 is 3 µM.
Consider `CC(C)(C)NCC(O)COc1ccc([N+](=O)[O-])cc1C(=O)Nc1cccc2[nH]ccc12` (stereo not drawn) [Example 50], for which, in series [1] (setting [5]), the change in vivo at 0.5 mg/kg came to 17%, the change in vivo at 1 mg/kg was 39% and the change in vivo at 2.5 mg/kg was determined as 77%. Besides, the “LD0 (maximum dose not causing any mortality in 8 days)” value with mice was 200 mg/kg.
Consider `COc1ccc(C(=O)Nc2cccc3[nH]ccc23)c(OCC(O)CNC(C)(C)C)c1` (stereo not drawn) [Example 53, 2-[3-(1,1-dimethylethyl)-amine]-2-hydroxy-propoxy-N-(1H-indol-4-yl)-4-methoxy-benzamide], for which, in series [1] (setting [5]), the change in vivo at 1 mg/kg was found to be 10% and the change in vivo at 2.5 mg/kg stood at 38%. Moreover, the IC50 in the series on Rat caudal arteries turned out to be 8 µM.
As to `CC(C)(C)NCC(O)COc1ccc(Cl)cc1C(=O)Nc1cccc2[nH]ccc12` (stereo not drawn) [Example 54, 5-Chloro-2-[3-(1,1-dimethylethyl)-amino]-2-hydroxy-propoxy-N-(1H-indol-4-yl)-benzamide], the IC50 in the series with Rat caudal arteries was determined as 5.4 µM.
